Values of other authors in patent publication US8674081B2, “Methods and compositions to elicit multivalent immune responses against dominant and subdominant epitopes, expressed on cancer cells and tumor stroma” (Mankind Corporation, priority 2005, dated 2014).

What was measured:
[1] = stated as 'has been shown'
human PBMC = conditions: stated as 'has been shown'
MHC class I = conditions: stated as 'has been shown'

Row | MHC class I binding relative to native epitope (MHC class I) | Sequence | CTL / anti-tumor immune response, in vivo immunization in mice [1] | CTL / anti-tumor immune response, in vitro immunization of human PBMC (human PBMC)
1 |  | GLPSIPVHPI (listed as Homo sapiens) [PSMA288-297] | significant CTL responses | significant CTL responses
2 | elevated | GLPSIPVHPV [PSMA288-297 I297V] | significant CTL responses | significant CTL responses
3 |  | SLLQHLIGL [PRAME425-433] | strong anti-tumor immune responses | strong anti-tumor immune responses
